Measured values taken from the supplement of paper PMC9663587.

tested on: MCF12A; assay: GRmax, 72 h; higher = less effect;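 further: breast cell lines in 384-well plates, nine doses across a 10^4 range, Dye Drop imaging of viable cells vs DMSO and time-zero plates, GR 0 means no net growth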

Row | Compound | GRmax, 72 h
1 | O=C1NC(=NCc2cccs2)SC1=Cc1ccc2ncccc2c1 [R0-3306] (max 10 µM) | 0.458 GR
2 | CNCc1ccc(-c2[nH]c3cc(F)cc4c3c2CCNC4=O)cc1 [Rucaparib] (max 10 µM) | 0.825 GR
3 | CC1(N)CCN(c2cnc(-c3cccc(Cl)c3Cl)c(N)n2)CC1 [SHP099] (max 10 µM) | 0.929 GR
4 | CN1CCN(CCOc2cc(OC3CCOCC3)c3c(Nc4c(Cl)ccc5c4OCO5)ncnc3c2)CC1 [Saracatinib/AZD0530] (max 10 µM) | 0.414 GR
5 | Cc1cc(C(C)Nc2ccccc2)c2nc(N3CCOCC3)cc(=O)n2c1 (stereo not drawn) [TGX221] (max 10 µM) | 1.05 GR
6 | CN(C)C/C=C/C(=O)Nc1ccc(C(=O)Nc2cccc(Nc3ncc(Cl)c(-c4c[nH]c5ccccc45)n3)c2)cc1 [THZ1] (max 1 µM) | -0.312 GR
7 | CN(C)C/C=C/C(=O)Nc1ccc(C(=O)N2CCC[C@@H](Nc3ncc(Cl)c(-c4c[nH]c5ccccc45)n3)C2)cc1 [THZ531] (max 1 µM) | -0.0737 GR
8 | CN(C)C/C=C/C(=O)Nc1ccc(C(=O)Nc2cccc(Nc3cc(-c4c[nH]c5ccccc45)ncn3)c2)cc1 [THZ-P1-2] (max 10 µM) | 0.364 GR
9 | Cc1nc(-c2cn3c(n2)-c2ccc(-c4cnn(C(C)(C)C(N)=O)c4)cc2OCC3)n(C(C)C)n1 [Taselisib/GDC0032] (max 10 µM) | 0.074 GR
10 | O=C1NC(=O)[C@@H](c2cn3c4c(cccc24)CCC3)[C@@H]1c1c[nH]c2ccccc12 [Tivantinib/ARQ197] (max 10 µM) | -0.0779 GR
11 | Nc1ccc(-c2ccc3ncc4ccc(=O)n(-c5cccc(C(F)(F)F)c5)c4c3c2)cn1 [Torin2] (max 1 µM) | 0.0112 GR
12 | CC[C@@H]1C(=O)N(C)c2cnc(Nc3ccc(C(=O)N[C@H]4CC[C@H](N5CCN(CC6CC6)CC5)CC4)cc3OC)nc2N1C(C)C [Volasertib/BI6727] (max 1 µM) | -0.0126 GR
13 | O=C(CCCCCCC(=O)Nc1ccccc1)NO [Vorinostat] (max 10 µM) | 0.318 GR
14 | C=CC(=O)Nc1ccc(C(=O)Nc2[nH]nc3c2CN(C(=O)N[C@H](CN(C)C)c2ccccc2)C3(C)C)cc1 [YKL-5-124] (max 10 µM) | 0.0267 GR
15 | CN1CCN(C(=O)c2ccc3cc(CCNc4ncnc5ccc(C#N)cc45)ccc3c2)CC1 [senexin b] (max 10 µM) | 0.776 GR

tested on: ZR7530; assay: GRmax, 72 h; higher = less effect;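 further: breast cell lines in 384-well plates, nine doses across a 10^4 range, Dye Drop imaging of viable cells vs DMSO and time-zero plates, GR 0 means no net growth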

Row | Compound | GRmax, 72 h
16 | O=C1NC(=NCc2cccs2)SC1=Cc1ccc2ncccc2c1 [R0-3306] (max 10 µM) | 0.065 GR
17 | CNCc1ccc(-c2[nH]c3cc(F)cc4c3c2CCNC4=O)cc1 [Rucaparib] (max 10 µM) | 0.674 GR
18 | CC1(N)CCN(c2cnc(-c3cccc(Cl)c3Cl)c(N)n2)CC1 [SHP099] (max 10 µM) | 0.715 GR
19 | CN1CCN(CCOc2cc(OC3CCOCC3)c3c(Nc4c(Cl)ccc5c4OCO5)ncnc3c2)CC1 [Saracatinib/AZD0530] (max 10 µM) | -0.159 GR
20 | Cc1cc(C(C)Nc2ccccc2)c2nc(N3CCOCC3)cc(=O)n2c1 (stereo not drawn) [TGX221] (max 10 µM) | 0.925 GR
21 | CN(C)C/C=C/C(=O)Nc1ccc(C(=O)Nc2cccc(Nc3ncc(Cl)c(-c4c[nH]c5ccccc45)n3)c2)cc1 [THZ1] (max 1 µM) | -0.638 GR
22 | CN(C)C/C=C/C(=O)Nc1ccc(C(=O)N2CCC[C@@H](Nc3ncc(Cl)c(-c4c[nH]c5ccccc45)n3)C2)cc1 [THZ531] (max 1 µM) | -0.732 GR
23 | CN(C)C/C=C/C(=O)Nc1ccc(C(=O)Nc2cccc(Nc3cc(-c4c[nH]c5ccccc45)ncn3)c2)cc1 [THZ-P1-2] (max 10 µM) | -0.964 GR
24 | Cc1nc(-c2cn3c(n2)-c2ccc(-c4cnn(C(C)(C)C(N)=O)c4)cc2OCC3)n(C(C)C)n1 [Taselisib/GDC0032] (max 10 µM) | -0.478 GR
25 | O=C1NC(=O)[C@@H](c2cn3c4c(cccc24)CCC3)[C@@H]1c1c[nH]c2ccccc12 [Tivantinib/ARQ197] (max 10 µM) | -0.539 GR
26 | Nc1ccc(-c2ccc3ncc4ccc(=O)n(-c5cccc(C(F)(F)F)c5)c4c3c2)cn1 [Torin2] (max 1 µM) | -0.0202 GR
27 | CC[C@@H]1C(=O)N(C)c2cnc(Nc3ccc(C(=O)N[C@H]4CC[C@H](N5CCN(CC6CC6)CC5)CC4)cc3OC)nc2N1C(C)C [Volasertib/BI6727] (max 1 µM) | -0.42 GR
28 | O=C(CCCCCCC(=O)Nc1ccccc1)NO [Vorinostat] (max 10 µM) | -0.318 GR
29 | C=CC(=O)Nc1ccc(C(=O)Nc2[nH]nc3c2CN(C(=O)N[C@H](CN(C)C)c2ccccc2)C3(C)C)cc1 [YKL-5-124] (max 10 µM) | -0.625 GR
30 | CN1CCN(C(=O)c2ccc3cc(CCNc4ncnc5ccc(C#N)cc45)ccc3c2)CC1 [senexin b] (max 10 µM) | 0.0824 GR

tested on: HCC1187; assay: GRmax, 72 h; higher = less effect;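 further: breast cell lines in 384-well plates, nine doses across a 10^4 range, Dye Drop imaging of viable cells vs DMSO and time-zero plates, GR 0 means no net growth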

Row | Compound | GRmax, 72 h
31 | O=C1NC(=NCc2cccs2)SC1=Cc1ccc2ncccc2c1 [R0-3306] (max 10 µM) | -0.648 GR
32 | CNCc1ccc(-c2[nH]c3cc(F)cc4c3c2CCNC4=O)cc1 [Rucaparib] (max 10 µM) | 0.802 GR
33 | CC1(N)CCN(c2cnc(-c3cccc(Cl)c3Cl)c(N)n2)CC1 [SHP099] (max 10 µM) | 0.77 GR
34 | CN1CCN(CCOc2cc(OC3CCOCC3)c3c(Nc4c(Cl)ccc5c4OCO5)ncnc3c2)CC1 [Saracatinib/AZD0530] (max 10 µM) | 0.15 GR
35 | Cc1cc(C(C)Nc2ccccc2)c2nc(N3CCOCC3)cc(=O)n2c1 (stereo not drawn) [TGX221] (max 10 µM) | 0.46 GR
36 | CN(C)C/C=C/C(=O)Nc1ccc(C(=O)Nc2cccc(Nc3ncc(Cl)c(-c4c[nH]c5ccccc45)n3)c2)cc1 [THZ1] (max 1 µM) | -0.852 GR
37 | CN(C)C/C=C/C(=O)Nc1ccc(C(=O)N2CCC[C@@H](Nc3ncc(Cl)c(-c4c[nH]c5ccccc45)n3)C2)cc1 [THZ531] (max 1 µM) | -0.852 GR
38 | CN(C)C/C=C/C(=O)Nc1ccc(C(=O)Nc2cccc(Nc3cc(-c4c[nH]c5ccccc45)ncn3)c2)cc1 [THZ-P1-2] (max 10 µM) | 0.283 GR
39 | Cc1nc(-c2cn3c(n2)-c2ccc(-c4cnn(C(C)(C)C(N)=O)c4)cc2OCC3)n(C(C)C)n1 [Taselisib/GDC0032] (max 10 µM) | -0.0769 GR
40 | O=C1NC(=O)[C@@H](c2cn3c4c(cccc24)CCC3)[C@@H]1c1c[nH]c2ccccc12 [Tivantinib/ARQ197] (max 10 µM) | -0.761 GR
41 | Nc1ccc(-c2ccc3ncc4ccc(=O)n(-c5cccc(C(F)(F)F)c5)c4c3c2)cn1 [Torin2] (max 1 µM) | -0.0468 GR
42 | CC[C@@H]1C(=O)N(C)c2cnc(Nc3ccc(C(=O)N[C@H]4CC[C@H](N5CCN(CC6CC6)CC5)CC4)cc3OC)nc2N1C(C)C [Volasertib/BI6727] (max 1 µM) | -0.708 GR
43 | O=C(CCCCCCC(=O)Nc1ccccc1)NO [Vorinostat] (max 10 µM) | -0.467 GR
44 | C=CC(=O)Nc1ccc(C(=O)Nc2[nH]nc3c2CN(C(=O)N[C@H](CN(C)C)c2ccccc2)C3(C)C)cc1 [YKL-5-124] (max 10 µM) | -0.635 GR
45 | CN1CCN(C(=O)c2ccc3cc(CCNc4ncnc5ccc(C#N)cc45)ccc3c2)CC1 [senexin b] (max 10 µM) | 1.62 GR

tested on: MCF10A; assay: GRmax, 72 h; higher = less effect;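 further: breast cell lines in 384-well plates, nine doses across a 10^4 range, Dye Drop imaging of viable cells vs DMSO and time-zero plates, GR 0 means no net growth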

Row | Compound | GRmax, 72 h
46 | O=C1NC(=NCc2cccs2)SC1=Cc1ccc2ncccc2c1 [R0-3306] (max 10 µM) | -0.0081 GR
47 | CNCc1ccc(-c2[nH]c3cc(F)cc4c3c2CCNC4=O)cc1 [Rucaparib] (max 10 µM) | 0.874 GR
48 | CC1(N)CCN(c2cnc(-c3cccc(Cl)c3Cl)c(N)n2)CC1 [SHP099] (max 10 µM) | 0.571 GR
